Experimental data published in ChEMBL document CHEMBL1133689, “7-Chloro-4,5-dihydro-8-(1,2,4-triazol-4-yl)-4-oxo-1,2,4-triazolo[1, 5-a]quinoxaline-2-carboxylates as novel highly selective AMPA receptor antagonists” (J Med Chem, 2000).

Legend:
[1] = Compound was evaluated for inhibition of binding of [3H]glycine to specific binding at glycine receptor in rat cortical membrane; format: cell membranes
[2] = biological target: Glutamate receptor ionotropic, kainate (Rattus norvegicus) (UniProt P22756+Q01812+P42260+P42264+Q63273); experiment: Compound was evaluated for inhibition of binding of [3H]KA to specific binding at Ka receptor in rat cortical membrane at 100 uM; format: cell membranes
[3] = organism: Mus musculus; experiment: Ability to inhibit depolarizations induced by AMPA in mouse cortical wedge preparations; format: functional, organism-based
[4] = organism: Mus musculus; experiment: Ability to inhibit depolarizations induced by NMDA in mouse cortical wedge preparations.; format: functional, organism-based
[5] = Compound was evaluated for inhibition of binding of [3H]glycine to specific binding at glycine receptor in rat cortical membrane at 100 uM; format: cell membranes
[6] = biological target: Glutamate receptor ionotropic, kainate; experiment: Compound was evaluated for inhibition of binding of [3H]KA to specific binding at Ka receptor in rat cortical membrane; format: cell membranes
[7] = biological target: Glutamate receptor ionotropic, AMPA (Rattus norvegicus, UniProt P19490+P19491+P19492+P19493); experiment: Compound was evaluated for inhibition of binding of [3H]AMPA to specific binding at Ionotropic glutamate receptor AMPA in rat cortical membrane; format: cell membranes

| Compound | Ki [1] [µM] | inhibition [2] [%] | IC50 [3] [µM] | IC50 [4] [µM] | inhibition [5] [%] | IC50 [6] [µM] | Ki [7] [µM] |
| --- | --- | --- | --- | --- | --- | --- | --- |
| O=C(O)c1nc2c(O)nc3cc(Cl)c([N+](=O)[O-])cc3n2n1 | 2.2 | 41 | 75 | 75 | – | – | – |
| O=C(O)c1nc2c(O)nc3cc(Cl)c(-n4ccnc4)cc3n2n1 | – | – | – | – | 45 | – | – |
| O=C(O)c1nc2c(=O)[nH]c3cc(Cl)c(-n4ccnc4)cc3n2n1 | – | – | – | – | – | 16.8 | 0.98 |
| NS(=O)(=O)c1cccc2c1c([N+](=O)[O-])cc1nc(O)c(O)nc12 [NBQX] | – | – | 0.2 | – | 3 | – | – |
| O=C(O)c1nc2c(O)nc3cc(Cl)c(-n4cnnc4)cc3n2n1 [TQX-173] | 33.5 | – | 2.3 | 46 | – | 11.6 | 0.14 |
| CCOC(=O)c1nc2c(O)nc3cc(Cl)c(-n4cnnc4)cc3n2n1 | – | 42 | 15 | 100 | 15 | – | 0.7 |
| O=C(O)c1cc(O)c2c(Cl)cc(Cl)cc2n1 | 0.09 | 8 | 52 | 4.7 | – | – | – |
| CCOC(=O)c1nc2c(O)nc3cc(Cl)c(-n4ccnc4)cc3n2n1 | – | 24 | 22 | > 100 | 39 | – | 2.3 |
